Test results from patent US20230310477A1, “PHARMACEUTICAL COMPOSITION COMPRISING ABELIOPHYLLUM DISTICHUM EXTRACT AS ACTIVE INGREDIENT FOR TREATING ANDROGEN RECEPTOR-RELATED DISEASE” (priority 2020, published 2023).

How the values were obtained:
cyclin D1 = assay: Western blotting of cyclin D1 expression in testosterone-treated BPH-1 cells; assay type: cell-based; settings: testosterone 100 nM, 25, 50 and 100 μM, 24 hours, concentration dependent
[1] = test system: steroid receptor coactivator 1 (SRC1); assay: Western blotting of SRC1 in prostate tissue of BPH animal model; assay type: in vivo, SD rats; settings: oral 1 mg/kg or 10 mg/kg, 4 weeks; depending on intake concentration
Experimental: (§1) All experiments were conducted in an aseptic environment. Three days after surgical recovery for the BPH-induced group (BPH), testosterone was dissolved in corn oil and then subcutaneously injected daily at 3 mg/kg, inducing BPH. For an Abeliophyllum distichum leaf ethanol extract-administered group (BPH+ADLE), an Abeliophyllum distichum leaf ethanol extract was dissolved in sterile distilled water and orally administered using a zonde at 100 mg/kg for 4 weeks. […]
(§2) For animal experimental groups, protein expression of androgen signaling-related factors, 5α-reductase 2 (5AR2), steroid receptor coactivator 1 (SRC1), an estrogen receptor (ER), and a prostate-specific antigen (PSA), were analyzed. […] Subsequently, bands were then detected using an Azure c300 imaging system (Azure Biosystems) by chemiluminescence with an HPR substrate (Advanta Inc., San Jose, CA, USA). Band intensities were quantified by setting the area of each sample using ImageJ software (NIH ver. 1.48, USA) and then setting the area of corresponding β-actin in the same manner as used above, and dividing the area of β-actin by the area of each sample.

BPH animal models = assay: Prostate indexes in BPH animal model; assay type: in vivo, SD rats; settings: 4 weeks
Experimental: All experiments were conducted in an aseptic environment. Three days after surgical recovery for the BPH-induced group (BPH), testosterone was dissolved in corn oil and then subcutaneously injected daily at 3 mg/kg, inducing BPH. For an Abeliophyllum distichum leaf ethanol extract-administered group (BPH+ADLE), an Abeliophyllum distichum leaf ethanol extract was dissolved in sterile distilled water and orally administered using a zonde at 100 mg/kg for 4 weeks. For a saw palmetto-administered group (BPH+Saw) as a positive control, saw palmetto was dissolved in sterile distilled water and orally administered at 100 mg/kg, and for a finasteride-administered group (BPH+Fi), finasteride was orally administered using a zonde at 1 mg/kg per day for 4 weeks. After the experiment, the rats were sacrificed using zoletil, blood samples were collected through heart puncture, and serum was then separated and stored at −80° C. The prostate was separated and weighed using RNAse-free surgical tools, and stored at −80° C., followed by western blotting.
Meanwhile, isoquercetin (IQ) administration was also performed in the same manner and using the same controls as described above, and for a low concentration-administered group (BPH+IQ1), IQ was dissolved in sterile distilled water and then orally administered at 1 mg/kg, and for a high concentration-administered group (BPH+IQ10), IQ was dissolved in sterile distilled water and then orally administered using a zonde at 10 mg/kg for 4 weeks.

PCNA = assay: Western blotting of PCNA expression in testosterone-treated BPH-1 cells; assay type: cell-based; settings: testosterone 100 nM, 25, 50 and 100 μM, 24 hours, concentration dependent
AR = assay: Western blotting of AR in prostate tissue of BPH animal model; assay type: in vivo, SD rats; settings: oral 1 mg/kg or 10 mg/kg, 4 weeks; depending on intake concentration
5α-reductase 2 (5AR2) = assay: Western blotting of 5AR2 in prostate tissue of BPH animal model; assay type: in vivo, SD rats; settings: oral 1 mg/kg or 10 mg/kg, 4 weeks; depending on intake concentration
Experimental: as §1, §2

5 alpha reductase (5AR2) = assay: Western blotting of testosterone-induced 5AR2 expression in LNCaP cells; assay type: cell-based
Experimental: (§3) The LNCaP cells (2×10^6) were seeded in 6-well plates, and treated with 100 nM testosterone propionate (TP, Tokyo Chemical Industry) and 100 μg/mL each of Abeliophyllum distichum leaf hot water (D.W.), ethanol (EtOH), and hexane (Hexane) extracts for 24 hours. Here, a group treated with 1 μg/mL finasteride (Fi), which is an androgen inhibiting drug, was used as a positive control. After finishing the treatment of the cells, an androgenic receptor signaling-inhibitory effect was analyzed using western blotting. First, the cells were lysed in a protein inhibitor cocktail (Sigma)-containing radioimmunoprecipitation assay (RIPA) buffer, and a protein concentration was estimated using a BCA assay, followed by electrophoresis in a 12% SDS polyacrylamide gel. The gel was then transferred to a membrane using Mini Trans-Blot cells (Bio rad). Subsequently, the membrane was treated with primary antibodies at 4° C. for 12 hours. […] Bands were then detected using an Azure c300 imaging system (Azure Biosystems) by chemiluminescence with an HPR substrate (Advansta Inc., San Jose, CA, USA). Band intensities were quantified by setting the area of each sample using ImageJ software (NIH ver. 1.48, USA) and then setting the area of corresponding β-actin in the same manner as used above, and dividing the area of β-actin by the area of each sample.

androgenic receptor (AR) = assay: Western blotting of testosterone-induced AR expression in LNCaP cells; assay type: cell-based
Experimental: LNCaP cells were treated with testosterone propionate (TP) to induce androgenic receptor signaling, treated with Abeliophyllum distichum leaf hot water (D.W.), ethanol (EtOH), and hexane (Hexane) extracts, followed by confirming the efficacy of inhibiting the expression of an androgenic receptor (AR, SantaCruz), 5 alpha reductase (5AR2, ABCam), and prostate-specific antigen (PSA, SantaCruz) to compare the inhibitory effect on androgenic receptor signaling-related factors per Abeliophyllum distichum leaf extract LNCaP cells in LNCaP cells. The LNCaP cells (2×10^6) were seeded in 6-well plates, and treated with 100 nM testosterone propionate (TP, Tokyo Chemical Industry) and 100 μg/mL each of Abeliophyllum distichum leaf hot water (D.W.), ethanol (EtOH), and hexane (Hexane) extracts for 24 hours. […] After finishing the treatment of the cells, an androgenic receptor signaling-inhibitory effect was analyzed using western blotting. […] Bands were then detected using an Azure c300 imaging system (Azure Biosystems) by chemiluminescence with an HPR substrate (Advansta Inc., San Jose, CA, USA). Band intensities were quantified by setting the area of each sample using ImageJ software (NIH ver. 1.48, USA) and then setting the area of corresponding β-actin in the same manner as used above, and dividing the area of β-actin by the area of each sample. […]

PI3K [2] = assay: Western blotting of testosterone-induced PI3K expression in prostatic cells; assay type: cell-based; settings: depending on the concentration of isoquercetin
PI3K [3] = assay: Western blotting of PI3K expression in testosterone-treated BPH-1 cells; assay type: cell-based; settings: testosterone 100 nM, 25, 50 and 100 μM, 24 hours, concentration dependent
[4] = test system: prostate-specific antigen (PSA); assay: Western blotting of testosterone-induced PSA expression in LNCaP cells; assay type: cell-based; settings: compared among IQ, Rutin, CA and IR
Experimental: as §3

[5] = oral 1 mg/kg or 10 mg/kg, compared to the BPH-induced model
[6] = compared among IQ, Rutin, CA and IR
[7] = testosterone-induced, depending on the concentration of isoquercetin

O=c1c(O[C@@H]2O[C@H](CO)[C@@H](O)[C@H](O)[C@H]2O)c(-c2ccc(O)c(O)c2)oc2cc(O)cc(O)c12 [isoquercetin, 3-(β-D-glucopyranosyloxy)-3′,4′,5,7-tetrahydroxyflavone]
significantly decreased: ratio of the prostate weight to a body weight (BPH animal models; [5])
significantly reduced: cyclin D1 expression (cyclin D1) | prostate weight (BPH animal models; [5]) | PCNA expression (PCNA) | expression of 5AR2 (5 alpha reductase (5AR2); [7]) | expression of AR (androgenic receptor (AR); [7]) | expression of PI3K (PI3K [2]) | PI3K expression (PI3K [3])
reduced: expression level of SRC-1 in prostate tissue [1] | expression level of AR in prostate tissue (AR) | expression level of 5AR2 in prostate tissue (5α-reductase 2 (5AR2))
lowered: prostate index (BPH animal models; oral 1 mg/kg and 10 mg/kg, depending on concentration)
most excellent effect: effect on testosterone-induced 5AR2 expression level among four functional ingredient candidates (5 alpha reductase (5AR2); [6]) | effect on testosterone-induced AR expression level among four functional ingredient candidates (androgenic receptor (AR); [6]) | effect on testosterone-induced PSA expression level among four functional ingredient candidates [4]
